Assays:
Type in all cases: biochemical
[1] = target: T1, human JAK1 (a.a. 837-1142) (Homo sapiens, UniProt P23458); assay: In vitro JAK kinase assay (HTRF, phosphorylation of a biotinylated peptide), JAK1; conditions: method AA1 (90 μM ATP) or AA2 (1000 μM ATP), not stated per value; read-out: JAK1 IC50
T1 construct: human JAK1 (a.a. 837-1142); His tag (N); made in house; host or cells: insect cells (baculovirus)
Procedure, shortened: (§1)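 Phosphorylation of a biotinylated peptide by the JAK kinase domain, detected by HTRF with Eu-Py20 and SA-APC. ATP was 90 μM for JAK1, 30 μM for JAK2 and 3 μM for JAK3. Reactions ran 1 h at room temperature and were stopped with EDTA, followed by 40 min antibody binding.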

[2] = target: T2, human JAK2 (a.a. 828-1132) (Homo sapiens, UniProt O60674); assay: In vitro JAK kinase assay (HTRF, phosphorylation of a biotinylated peptide), JAK2; conditions: method AA1 (30 μM ATP) or AA2 (1000 μM ATP), not stated per value
T2 construct: JAK2 (a.a. 828-1132); His tag (N); made in house; host or cells: insect cells (baculovirus)
T2 sequence (O60674 828-1132): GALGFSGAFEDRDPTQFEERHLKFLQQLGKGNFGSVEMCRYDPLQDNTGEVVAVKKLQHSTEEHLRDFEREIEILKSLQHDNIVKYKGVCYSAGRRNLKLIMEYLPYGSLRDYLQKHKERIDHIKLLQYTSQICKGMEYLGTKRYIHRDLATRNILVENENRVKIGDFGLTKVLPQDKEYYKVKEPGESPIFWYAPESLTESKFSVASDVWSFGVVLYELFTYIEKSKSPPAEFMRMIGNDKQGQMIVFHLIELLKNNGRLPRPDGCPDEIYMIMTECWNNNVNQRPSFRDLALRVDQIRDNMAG
Procedure, shortened: as §1

[3] = target: T3, human JAK3 (a.a. 781-1124) (Homo sapiens, UniProt P52333); assay: In vitro JAK kinase assay (HTRF, phosphorylation of a biotinylated peptide), JAK3; conditions: method AA1 (3 μM ATP) or AA2 (1000 μM ATP), not stated per value
T3 construct: JAK3 (a.a. 781-1124); His tag (N); made in house; host or cells: insect cells (baculovirus)
T3 sequence (P52333 781-1124): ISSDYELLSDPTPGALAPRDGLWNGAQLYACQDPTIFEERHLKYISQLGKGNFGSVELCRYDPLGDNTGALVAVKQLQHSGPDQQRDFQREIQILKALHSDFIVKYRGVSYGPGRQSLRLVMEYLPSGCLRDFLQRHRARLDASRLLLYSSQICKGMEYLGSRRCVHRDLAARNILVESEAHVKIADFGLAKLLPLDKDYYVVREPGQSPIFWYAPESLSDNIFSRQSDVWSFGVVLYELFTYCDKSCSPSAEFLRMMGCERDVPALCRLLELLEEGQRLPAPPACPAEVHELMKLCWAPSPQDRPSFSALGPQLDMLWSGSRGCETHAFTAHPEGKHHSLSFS
Procedure, shortened: as §1

TYK2 = TYK2 (Homo sapiens, UniProt P29597); assay: TYK2 kinase inhibition (Table A1)
TYK2, sequence (P29597 whole entry): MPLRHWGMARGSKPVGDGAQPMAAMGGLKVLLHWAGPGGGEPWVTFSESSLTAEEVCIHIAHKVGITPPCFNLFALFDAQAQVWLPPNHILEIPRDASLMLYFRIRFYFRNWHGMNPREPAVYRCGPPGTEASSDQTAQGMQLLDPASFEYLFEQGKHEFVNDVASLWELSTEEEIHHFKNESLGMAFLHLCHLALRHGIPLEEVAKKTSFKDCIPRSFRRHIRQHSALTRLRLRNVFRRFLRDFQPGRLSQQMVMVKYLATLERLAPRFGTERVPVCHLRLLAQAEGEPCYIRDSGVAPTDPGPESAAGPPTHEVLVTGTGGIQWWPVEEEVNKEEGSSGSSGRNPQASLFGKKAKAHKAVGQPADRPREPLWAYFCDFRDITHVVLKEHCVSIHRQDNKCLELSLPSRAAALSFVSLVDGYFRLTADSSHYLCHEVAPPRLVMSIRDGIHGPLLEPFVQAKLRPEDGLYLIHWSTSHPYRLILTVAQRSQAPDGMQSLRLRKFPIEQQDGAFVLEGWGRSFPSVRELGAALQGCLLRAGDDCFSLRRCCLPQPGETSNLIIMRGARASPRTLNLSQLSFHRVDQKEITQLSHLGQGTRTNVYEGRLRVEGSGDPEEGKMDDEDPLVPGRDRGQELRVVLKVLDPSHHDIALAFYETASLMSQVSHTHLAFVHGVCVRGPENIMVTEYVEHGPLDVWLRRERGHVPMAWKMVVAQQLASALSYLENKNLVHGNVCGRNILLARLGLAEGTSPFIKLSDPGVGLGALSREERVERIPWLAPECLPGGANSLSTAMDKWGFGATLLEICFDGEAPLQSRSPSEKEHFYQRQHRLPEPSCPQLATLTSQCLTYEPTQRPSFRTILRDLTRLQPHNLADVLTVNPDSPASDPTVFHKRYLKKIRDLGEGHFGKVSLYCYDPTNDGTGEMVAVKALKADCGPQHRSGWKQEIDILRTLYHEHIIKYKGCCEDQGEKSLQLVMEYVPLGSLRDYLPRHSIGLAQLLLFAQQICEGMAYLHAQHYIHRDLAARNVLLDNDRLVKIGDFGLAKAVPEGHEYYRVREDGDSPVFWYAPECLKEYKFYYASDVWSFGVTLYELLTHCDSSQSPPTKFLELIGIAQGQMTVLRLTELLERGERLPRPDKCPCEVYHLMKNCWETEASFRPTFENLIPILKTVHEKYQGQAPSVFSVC

[4] = target: T4, Recombinant Human Anaplastic Lymphoma Kinase (Homo sapiens, UniProt Q9UM73); assay: ALK HTRF kinase assay; conditions: compound at 500 nM or 1 mM; 90 μM ATP
T4 construct: purchased Invitrogen, Carlsbad, Calif
T4 sequence (Q9UM73 19-1620): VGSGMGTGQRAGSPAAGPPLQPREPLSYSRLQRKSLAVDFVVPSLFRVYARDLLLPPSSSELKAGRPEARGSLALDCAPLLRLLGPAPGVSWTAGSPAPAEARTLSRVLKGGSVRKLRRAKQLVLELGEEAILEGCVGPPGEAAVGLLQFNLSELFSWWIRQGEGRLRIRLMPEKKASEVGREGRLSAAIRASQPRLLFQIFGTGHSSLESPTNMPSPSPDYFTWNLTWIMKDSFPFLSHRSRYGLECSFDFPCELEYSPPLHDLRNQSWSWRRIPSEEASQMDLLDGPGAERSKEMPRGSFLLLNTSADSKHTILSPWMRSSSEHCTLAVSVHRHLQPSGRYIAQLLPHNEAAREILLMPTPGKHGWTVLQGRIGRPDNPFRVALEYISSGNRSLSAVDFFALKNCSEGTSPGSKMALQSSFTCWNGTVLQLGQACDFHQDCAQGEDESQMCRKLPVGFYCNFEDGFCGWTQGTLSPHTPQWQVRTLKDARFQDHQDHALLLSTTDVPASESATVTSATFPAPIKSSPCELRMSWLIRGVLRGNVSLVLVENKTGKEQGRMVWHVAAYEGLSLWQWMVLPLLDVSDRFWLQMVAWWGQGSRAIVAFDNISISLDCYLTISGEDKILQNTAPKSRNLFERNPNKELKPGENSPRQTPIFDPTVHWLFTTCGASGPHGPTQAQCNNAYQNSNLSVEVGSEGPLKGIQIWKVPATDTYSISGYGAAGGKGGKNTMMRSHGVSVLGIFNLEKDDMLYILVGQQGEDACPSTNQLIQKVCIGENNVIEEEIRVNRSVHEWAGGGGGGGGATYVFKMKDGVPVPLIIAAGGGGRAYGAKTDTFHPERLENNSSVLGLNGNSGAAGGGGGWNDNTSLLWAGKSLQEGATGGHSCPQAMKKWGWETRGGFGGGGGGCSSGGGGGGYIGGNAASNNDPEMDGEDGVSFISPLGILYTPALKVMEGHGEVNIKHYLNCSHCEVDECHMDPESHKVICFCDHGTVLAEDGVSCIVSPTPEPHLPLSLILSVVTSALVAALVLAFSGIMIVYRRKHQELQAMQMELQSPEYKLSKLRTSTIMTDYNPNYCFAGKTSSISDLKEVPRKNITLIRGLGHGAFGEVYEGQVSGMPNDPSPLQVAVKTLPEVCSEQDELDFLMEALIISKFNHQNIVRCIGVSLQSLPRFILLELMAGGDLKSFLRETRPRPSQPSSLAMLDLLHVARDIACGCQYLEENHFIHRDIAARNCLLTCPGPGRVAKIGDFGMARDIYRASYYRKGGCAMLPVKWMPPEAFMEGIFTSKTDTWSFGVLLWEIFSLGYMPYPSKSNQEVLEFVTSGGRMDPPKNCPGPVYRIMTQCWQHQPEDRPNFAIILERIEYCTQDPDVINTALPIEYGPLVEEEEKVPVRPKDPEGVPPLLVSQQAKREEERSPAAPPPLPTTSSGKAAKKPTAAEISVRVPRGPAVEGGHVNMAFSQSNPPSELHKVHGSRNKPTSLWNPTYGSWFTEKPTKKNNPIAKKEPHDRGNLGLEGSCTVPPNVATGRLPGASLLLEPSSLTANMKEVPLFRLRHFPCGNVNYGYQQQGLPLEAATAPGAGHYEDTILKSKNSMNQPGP
Procedure, shortened: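 TR-FRET read-out (Eu anti-pTyr antibody + streptavidin-APC) of biotin-peptide phosphorylation by recombinant human enzyme; IC50 by sigmoidal fit with top/bottom baselines and Hill slope.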

T1 sequence (P23458 849-1154): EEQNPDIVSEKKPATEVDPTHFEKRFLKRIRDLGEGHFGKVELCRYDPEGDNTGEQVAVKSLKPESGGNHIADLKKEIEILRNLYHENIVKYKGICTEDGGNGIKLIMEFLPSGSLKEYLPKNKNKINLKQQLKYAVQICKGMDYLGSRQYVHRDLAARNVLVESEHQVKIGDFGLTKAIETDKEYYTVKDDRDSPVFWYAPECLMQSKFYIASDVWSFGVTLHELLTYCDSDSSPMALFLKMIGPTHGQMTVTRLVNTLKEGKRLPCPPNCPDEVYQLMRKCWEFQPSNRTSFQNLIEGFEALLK

IC50 [1] [nM]	IC50 [2] [nM]	IC50 [3] [nM]	IC50 (TYK2) [nM]	ALK % of inhibition at a concentration of 500 nM or 1 mM [4] [%]	SMILES
1.5	5.8	58	3	28	CNC(=O)N1CCC(CC(=O)Nc2ccc3cc2CCc2cncc(c2)Nc2ncc(Cl)c(n2)N3)CC1 [Example A100, 4-(2-{[6-Chloro-2,4,8,18,22-pentaazatetracyclo[14.3.1.1(3,7).1(9,13)]docosa-1(20),3(22),4,6,9(21),10,12,16,18-nonaen-12-yl]amino}-2-oxoethyl)-N-methylpiperidine-1-carboxamide bis(trifluoroacetate)]
10	21	156	15	24	CC(C)C(=O)N1CCC(CC(=O)Nc2ccc3cc2CCc2cncc(c2)Nc2ncc(Cl)c(n2)N3)CC1 [Example A103, N-[6-Chloro-2,4,8,18,22-pentaazatetracyclo[14.3.1.1(3,7).1(9,13)]docosa-1(20),3(22),4,6,9(21),10,12,16,18-nonaen-12-yl]-2-(1-isobutyrylpiperidin-4-yl)acetamide bis(trifluoroacetate)]
81	8.3	148	4.4	26	CCC(=O)N1CCC(CC(=O)Nc2ccc3cc2CCc2cncc(c2)Nc2ncc(Cl)c(n2)N3)CC1 [Example A104, N-[6-Chloro-2,4,8,18,22-pentaazatetracyclo[14.3.1.1(3,7).1(9,13)]docosa-1(20),3(22),4,6,9(21),10,12,16,18-nonaen-12-yl]-2-(1-propionylpiperidin-4-yl)acetamide bis(trifluoroacetate)]

Further lines, the molecule ahead of its results:

SMILES	IC50 [1] [nM]	IC50 [2] [nM]	IC50 [3] [nM]	IC50 (TYK2) [nM]	ALK % of inhibition at a concentration of 500 nM or 1 mM [4] [%]
CCS(=O)(=O)N1CCC(CC(=O)Nc2ccc3cc2CCc2cncc(c2)Nc2ncc(Cl)c(n2)N3)CC1 [Example A98, N-[6-Chloro-2,4,8,18,22-pentaazatetracyclo[14.3.1.1(3,7).1(9,13)]docosa-1(20),3(22),4,6,9(21),10,12,16,18-nonaen-12-yl]-2-[1-(ethylsulfonyl)piperidin-4-yl]acetamide bis(trifluoroacetate)]	1	2.7	55	5.3	34
CC(C)NC(=O)N1CCC(CC(=O)Nc2ccc3cc2CCc2cncc(c2)Nc2ncc(Cl)c(n2)N3)CC1 [Example A99, 4-(2-{[6-Chloro-2,4,8,18,22-pentaazatetracyclo[14.3.1.1(3,7).1(9,13)]docosa-1(20),3(22),4,6,9(21),10,12,16,18-nonaen-12-yl]amino}-2-oxoethyl)-N-isopropylpiperidine-1-carboxamide bis(trifluoroacetate)]	15	24	133	24	25
Cc1cc(C(=O)N2CCC(CC(=O)Nc3ccc4cc3CCc3cncc(c3)Nc3ncc(Cl)c(n3)N4)CC2)no1 [Example A101, N-[6-Chloro-2,4,8,18,22-pentaazatetracyclo[14.3.1.1(3,7).1(9,13)]docosa-1(20),3(22),4,6,9(21),10,12,16,18-nonaen-12-yl]-2-{1-[(5-methylisoxazol-3-yl)carbonyl]piperidin-4-yl}acetamide bis(trifluoroacetate)]	0.5	10	128	3.4	29
O=C(CC1CCN(C(=O)c2cnccn2)CC1)Nc1ccc2cc1CCc1cncc(c1)Nc1ncc(Cl)c(n1)N2 [Example A102, N-[6-Chloro-2,4,8,18,22-pentaazatetracyclo[14.3.1.1(3,7).1(9,13)]docosa-1(20),3(22),4,6,9(21),10,12,16,18-nonaen-12-yl]-2-[1-(pyrazin-2-ylcarbonyl)piperidin-4-yl]acetamide tris(trifluoroacetate)]	10	20	170	19	21

Reference: patent US8871753B2, “Macrocyclic compounds and their use as kinase inhibitors” (Incyte Corporation, priority 2008, dated 2014)
